Results on 17 compounds are retold here after ChEMBL document CHEMBL5726146, “Sulfone amide linked benzothiazole inhibitors of endothelial lipase” (2019).

Molecules are shown by their SMILES.

This assay concerns the target T1, Endothelial lipase (Homo sapiens, UniProt Q9Y5X9).
T1 sequence (Q9Y5X9 whole entry): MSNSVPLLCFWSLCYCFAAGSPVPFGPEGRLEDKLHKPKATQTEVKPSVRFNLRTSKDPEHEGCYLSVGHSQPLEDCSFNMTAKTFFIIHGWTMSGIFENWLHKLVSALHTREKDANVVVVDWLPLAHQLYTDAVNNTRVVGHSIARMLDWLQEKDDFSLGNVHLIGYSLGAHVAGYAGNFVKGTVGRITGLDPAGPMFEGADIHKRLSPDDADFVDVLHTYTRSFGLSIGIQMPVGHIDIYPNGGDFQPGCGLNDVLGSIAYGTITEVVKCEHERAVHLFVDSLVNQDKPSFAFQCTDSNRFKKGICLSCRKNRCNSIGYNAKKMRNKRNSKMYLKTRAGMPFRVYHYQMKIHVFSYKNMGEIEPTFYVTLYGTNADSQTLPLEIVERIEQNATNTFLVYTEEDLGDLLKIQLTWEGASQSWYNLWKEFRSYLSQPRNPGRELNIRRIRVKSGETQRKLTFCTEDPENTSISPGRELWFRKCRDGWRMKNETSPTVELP
Nature of the assay: Biological Activity: Endothelial lipase (EL) and hepatic lipase (HL) activities were measured using a fluorescent substrate, A10070, (Invitrogen, CA) doped into an artificial vesicle containing DMPG (Avanti Polar Lipids) as the excipient. Vesicles were prepared by combining 571 μL of 29 mM DMPG in a 1:1 mixture of MeOH and CHCl3 with 2000 μL of 1 mM A10070 in a 1:1 mixture of MeOH and CHCl3. The mixture was dried under nitrogen in multiple vials then resuspended in 20 mL total volume of 50 mM HEPES pH 8.0 buffer containing 50 mM NaCl and 0.2 mM EDTA. The sample was allowed to sit at room temperature for 15 min and then was sonicated 3×4 mins on ice with a Branson Sonicator using duty cycle 1. This preparation provides vesicles with a mole fraction of 0.11 for the FRET substrate.The enzymatic assay was measured using 384-well white Optiplates. Each well contained 20 μL of assay buffer (50 mM HEPES pH 8.0, 50 mM NaCl and 1 mM CaCl2) and 0.25 μL of a DMSO solution containing a compound of interest. EL or HL (10 μL) was added and allowed to incubate with the compound for 30 min at 37° C. The source of EL was conditioned media obtained from HT-1080 cells that were transformed using RAGE technology (Athersys) to overexpress endogenous EL, and HL was partially purified from conditioned media obtained from COS cells overexpressing HL. The reaction was started by the addition of 10 μL of a 1:10 dilution of vesicles. The final total reaction volume was […]. The reaction rates were measured on a Gemini plate reader with an excitation wavelength of 490 nm and an emission wavelength of 530 nm. Readings were taken over a period of 60 minutes, and the slope between 300 and 900 secs of the readout was used to calculate the rate of the reaction.
In the case of `O=C(CNC(=O)C(c1nc2ccc(-c3cccnc3F)cc2s1)S(=O)(=O)c1ccccc1)NC1CC1` (configuration not stated), the IC50 – broadly, the concentration needed to halve the response being measured – is 102 nM. For the compound `CS(=O)(=O)C(C(=O)NCC(=O)NC1CC1)c1nc2cc(-c3ccccc3)c(F)cc2s1` (configuration not stated), the IC50 is 4 nM. Regarding `COCCS(=O)(=O)C(C(=O)NCC(=O)NC1CC1)c1nc2cc(-c3ccc(OC(C)C)nc3)ccc2s1` (configuration not stated), the IC50 is 11 nM.

In the case of `CC(=O)Nc1ccc(-c2cc3sc(C(C(=O)NCC(=O)NC4CC4)S(C)(=O)=O)nc3cc2F)cc1` (configuration not stated), the 50% inhibitory concentration (IC50) was 9 nM. Then `O=C(CNC(=O)C(c1nc2cc(F)c(-c3ccc(F)nc3)cc2s1)S(=O)(=O)c1ccccc1F)NC1CC1` (configuration not stated), with 58 nM. Under `COCCS(=O)(=O)C(C(=O)NCC(=O)NC1CC1)c1nc2cc(F)c(-c3ccc4c(c3)CCN4)cc2s1` (configuration not stated) stands 3 nM; under `CS(=O)(=O)C(C(=O)NCC(=O)NC1CC1)c1nc2cc(F)c(-c3ccc4c(c3)CCCN4C(=O)Cc3c(F)cccc3F)cc2s1` (configuration not stated), 7 nM; under `COCCS(=O)(=O)C(C(=O)NCC(=O)NC1CC1)c1nc2cc(-c3ccc(C)nc3)ccc2s1` (configuration not stated), 34 nM. For `CS(=O)(=O)C(C(=O)NCC(=O)NC1CC1)c1nc2cc(F)c(-c3ccc(=O)n(-c4ccccc4)c3)cc2s1` (configuration not stated), the IC50 is 6 nM. For the compound `COCCS(=O)(=O)C(C(=O)NCC(=O)NC1CC1)c1nc2ccc(-c3ccc(C(N)=O)c(Cl)c3)cc2s1` (configuration not stated), the half-inhibitory concentration (IC50) is 33 nM. Then `COCCS(=O)(=O)C(C(=O)NCC(=O)NC1CC1)c1nc2ccc(-c3cccnc3C(F)(F)F)cc2s1` (configuration not stated), with 37 nM; and `O=C(CNC(=O)C(c1nc2ccc(-c3ccc(F)nc3)cc2s1)S(=O)(=O)C1CCOCC1)NC1CC1` (configuration not stated), with 47 nM; and `CS(=O)(=O)C(C(=O)NCC(=O)NC1CC1)c1nc2cc(F)c(-c3ccc(C(=O)NCCc4ccccc4)cc3)cc2s1` (configuration not stated), with 1 nM. As for `COCCS(=O)(=O)C(C(=O)NCC(=O)NC1CC1)c1nc2c(F)cc(-c3cccnc3F)cc2s1` (configuration not stated), the IC50 was 106 nM. Under `C[C@H]1CN(C(=O)c2ccc(-c3ccc4nc(C(C(=O)NCC(=O)NC5CC5)S(C)(=O)=O)sc4c3)cc2)CCO1` (some centres not stated) stands 31 nM; under `COCCS(=O)(=O)C(C(=O)NCC(=O)NC1CC1)c1nc2ccc(-c3ccc(N4CCCC4)nc3)cc2s1` (configuration not stated), 118 nM. For the compound `Cn1nccc1-c1cc2sc(C(C(=O)NCC(=O)NC3CC3)S(C)(=O)=O)nc2cc1F` (configuration not stated), the IC50 is 26 nM.
